Assay results taken from US20250161297A1, “COMPOSITIONS AND METHODS FOR INHIBITING FSP1” (THE REGENTS OF THE UNIVERSITY OF CALIFORNIA, priority 2022, published 2025).

Tests used:
NQO1 = biological target: T1, NQO1 (Homo sapiens, UniProt P15559); assay: NQO1 CoQ oxidoreductase activity assay; format: biochemical
T1 construct: His6 (N); TEV cleavage site (N); made in house; host or cells: E. coli LOBSTR-BL21 (DE3)
Protocol: FSP1 and NQO1% Activity Curves: To measure in vitro activity of FSP1 and NQO1 for IC50 calculation, recombinant purified FSP1 and NQO1 were diluted in PBS. FSEN1 was dissolved and diluted in DMSO, and […] FSEN1 and 12.5 μL FSP1/NQO1 were mixed on an orbital shaker for 45 seconds at 450 rpm and incubated for 30 minutes in a NBS polystyrene 384-well plate (Corning Ref: 3640) at RT. NADH (Millipore Cat: 481913) was dissolved and diluted in PBS, and CoQ1 (Sigma-Aldrich SKU: C7956) was dissolved in DMSO and diluted in PBS. Diluted NADH and CoQ1 were combined into a 2×reaction mix and added to the plate wells to start the reaction. Final well volume was 25 μL, and final concentrations were 12.5n M FSP1, 400 µM CoQ1, 500 µM NADH, and 0.01-20 µM FSEN1. NADH Absorbance (355 nm) was measured as an inverse read-out of enzymatic product formation on a kinetic cycle with an interval time of 2.5 minutes at RT. All data was acquired using a Tecan infinite M1000. Raw data from 3 biological replicates were then plotted and initial slopes were calculated using a linear regression in prism (GraphPad), and all rates were normalized to vehicle (0 nM FSEN1) and No Protein controls where the highest and lowest slope values were used as 0 and 100%. […]

H460^C GPX4^KO cells = assay: cell-based assay of FSP1 activity, cell death (SYTOX Green/mCherry lethal fraction); settings: H460^C GPX4^KO cells; read-out: EC50 for triggering cell death
Protocol: (§1) For cell-based screen, cells were seeded in triplicate at a density of 500-750 cells per 50 μL per well in black 384-well plates (NUNC) and (Corning) 24 hr before start of imaging. After 24 hr, an additional 50 μL of drug infused medium containing 30 nM SYTOX Green Dead Cell Stain was carefully placed into the wells on top of existing medium. The plates were immediately transferred to an IncuCyte S3 imaging system (Essen Bioscience) enclosed in an incubator set to 37° C. and 5% CO2. One image per well were captured in the phase, green, and red channels every 1.5 or 3 hr over a 24 hr period, and the ratio of SYTOX Green-positive objects (dead cells) to SYTOX Green-positive plus Sg-SAFE mCherry-positive objects (total cells) was quantified using S3 image analysis software (Essen Bioscience). For each treatment condition, the SYTOX-to-′SYTOX+mCherry′-object ratio was plotted against the 24 hr imaging interval, the Area Under the Curve (AUC) was calculated and the average AUC was plotted using Prism (GraphPad). To calculate the half-maximal effective concentration (EC50) values, the AUC curve was fit to a variable slope function comparing response to drug concentration.
In addition to the in vitro activity assay, an orthogonal cell-based assay of FSP1 activity was also developed. […]

A549 lung cancer cells = assay: RSL3-induced cell death in A549 cells; format: cell-based
Protocol: as §1, with “concentration. […]” for “concentration.”

A375 melanoma cells = assay: cell death in A375 cells; format: cell-based
Protocol: as §1, with “concentration. […]” for “concentration.”

H460^C cells = assay: DHA- and FINO2-induced cell death with FSEN1 co-treatment; format: cell-based; settings: 1 μM FSEN1
Protocol: as §1
Synergy experiments: For cell-based synergy experiments, cells were seeded at a density of 750 cells per 25 μL per well in four black 384-well plates (Corning) 24 hr before start of imaging. After 24 hr, an additional 25 μL of drug infused medium containing 30 nM SYTOX Green Dead Cell Stain was carefully placed into the wells on top of existing medium. The plates were immediately transferred to an IncuCyte S3 imaging system (Essen Bioscience) enclosed in an incubator set to 37° C. and 5% CO2. One image per well were captured in the phase, green, and red channels every 4 hr over a 24 hr period, and the ratio of SYTOX Green-positive objects (dead cells) to SYTOX Green-positive plus Sg-SAFE mCherry-positive objects (total cells) was quantified using S3 image analysis software (Essen Bioscience). For each treatment condition, the SYTOX-to-′SYTOX+mCherry′-object ratio was plotted against the 24 hr imaging interval, the Area Under the Curve (AUC) was calculated, and the average AUC was plotted as a function of drug concentration (for example, RSL3) using Prism (GraphPad). To calculate the half-maximal effective concentration (EC50) values, the AUC curve was fit to a variable slope function comparing response to drug concentration.

T1 sequence (P15559 2-274): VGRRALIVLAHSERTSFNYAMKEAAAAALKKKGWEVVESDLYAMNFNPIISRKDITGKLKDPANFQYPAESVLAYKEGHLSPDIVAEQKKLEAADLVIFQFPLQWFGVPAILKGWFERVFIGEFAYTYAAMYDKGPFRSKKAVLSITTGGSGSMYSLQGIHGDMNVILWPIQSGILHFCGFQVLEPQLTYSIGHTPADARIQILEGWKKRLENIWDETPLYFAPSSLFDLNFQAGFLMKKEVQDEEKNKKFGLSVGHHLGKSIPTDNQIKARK

effect on the CoQ oxidoreductase activity of NQO1 (NQO1): no effect
SMILES: COc1ccc(N2CCN(Cc3cn4c(-c5ccc(Br)cc5)nnc4s3)CC2)cc1 [FSEN1]
EC50 (H460^C GPX4^KO cells): 69.4 nM
sensitizing effect on ferroptosis induction (A549 lung cancer cells): particularly large sensitizing effect
ferroptosis in the absence of an RSL3 co-treatment (A375 melanoma cells): induced a small amount of ferroptosis
sensitization to cell death induced by DHA and FINO2 (H460^C cells): strongly sensitized
